Here are results for 33 molecules from patent US12391686B2, “Compounds and uses thereof” (Foghorn Therapeutics Inc., priority 2019, dated 2025).

Where two headings read alike, the source gives them in different places.

The test has as its target T1, Nanoluciferase-BRD9 fusion protein (3×FLAG-NLuc-BRD9) in SYO-1 cells (Homo sapiens, UniProt Q9H8M2).
T1 construct: expressed in transfected cells; host or cells: SYO-1
T1 sequence (Q9H8M2 1-597): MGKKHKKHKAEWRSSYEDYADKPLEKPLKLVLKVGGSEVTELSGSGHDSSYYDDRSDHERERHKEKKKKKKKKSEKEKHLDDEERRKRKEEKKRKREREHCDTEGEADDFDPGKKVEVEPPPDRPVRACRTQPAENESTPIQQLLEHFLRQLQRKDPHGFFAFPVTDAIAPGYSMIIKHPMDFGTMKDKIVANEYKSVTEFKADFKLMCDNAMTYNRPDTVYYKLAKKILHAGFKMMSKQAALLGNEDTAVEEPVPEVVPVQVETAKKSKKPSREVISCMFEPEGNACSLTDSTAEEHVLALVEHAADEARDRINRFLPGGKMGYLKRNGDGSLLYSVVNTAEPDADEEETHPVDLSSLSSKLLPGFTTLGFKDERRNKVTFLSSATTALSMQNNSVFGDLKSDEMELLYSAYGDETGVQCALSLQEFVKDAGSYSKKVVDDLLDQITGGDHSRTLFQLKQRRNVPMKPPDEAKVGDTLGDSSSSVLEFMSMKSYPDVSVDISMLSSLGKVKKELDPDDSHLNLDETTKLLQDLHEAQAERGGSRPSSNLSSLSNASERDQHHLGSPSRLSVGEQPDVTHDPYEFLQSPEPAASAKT
In words: SYO1 BRD9 NanoLuc Degradation Assay. It counts as cell-based. Particulars: SYO-1 cells expressing 3×FLAG-NLuc-BRD9, 6 hours incubation, 1 μM top dose, read-out: SYO1 BRD9-NanoLuc degradation IC50. An outline of the steps:
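NanoLuc signal, read by Nano-Glo luminescence after 6 h compound exposure, gives % inhibition against DMSO-treated cells (high control) and cells given 1 μM of a standard BRD9 degrader (low control). Test compounds ran as 10-point 3-fold series, top 1 μM final, in duplicate on SYO-1 cells stably expressing 3×FLAG-NLuc-BRD9.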

As for `COc1cc(-c2cn(C)c(=O)c3cnc(N4CC[C@@H]4C)cc23)cc(OC)c1CN1CC(CN2CCC3(CC2)CN(c2ccc4c(c2)C(=O)N(C2CCC(=O)NC2=O)C4)C3)C1` (stereo partly drawn) [Compound D213], where the note is “Table 6C”, the DC50 is below 10 nM. Consider `COc1cc(-c2cn(C)c(=O)c3cnc(N(C)C)cc23)cc(OC)c1CN1CCC2(CC1)CN(c1ccc3c(c1)C(=O)N(C1CCC(=O)NC1=O)C3)C2` (stereo not drawn) [Compound D128], for which the DC50 (Table 6B) was below 10 nM. Still for that read-out and setting: next, `COc1cc(-c2cn(C)c(=O)c3cnc(N4CCOCC4)cc23)cc(OC)c1CN1CCC(CN2CCC3(CC2)CC(Oc2ccc4c(c2)C(=O)N(C2CCC(=O)NC2=O)C4=O)C3)CC1` (stereo not drawn) [Compound D178]: below 10 nM; `COc1cc(-c2cn(C)c(=O)c3cnc(N(C)C)cc23)cc(OC)c1CN1CC(CCN2CCN(c3ccc4c(c3)C(=O)N(C3CCC(=O)NC3=O)C4=O)CC2)C1` (stereo not drawn) [Compound D43]: at least 1000 nM. Consider `COc1cc(-c2cn(C)c(=O)c3cnc(N4CCOCC4)cc23)cc(OC)c1CN1CCC(C(N2CCC3(CC2)CC(Oc2ccc4c(c2)C(=O)N(C2CCC(=O)NC2=O)C4=O)C3)C(F)(F)F)CC1` (stereo not drawn) [Compound D196], for which the DC50 (Table 6C) is below 10 nM. On to `COc1cc(-c2cn(C)c(=O)c3cnc(N4CCC4)cc23)cc(OC)c1CN1CC(CN2CCC3(CC2)CN(c2ccc4c(c2)C(=O)N(C2CCC(=O)NC2=O)C4)C3)C1` (stereo not drawn) [Compound D311], for which, under “Table 6C”, the DC50 is below 10 nM. The same measure, in the same setting: next, `COc1cc(-c2cn(C)c(=O)c3cnc(N4CC[C@@H]4C)cc23)cc(OC)c1CN1CCC(CN2CCC3(CC2)CN(c2ccc4c(c2)C(=O)N(C2CCC(=O)NC2=O)C4)C3)CC1` (stereo partly drawn) [Compound D207]: below 10 nM. For the molecule `COc1cc(-c2cn(C)c(=O)c3cnc(N(C)C)cc23)cc(OC)c1CN1CCC(CN2CCN(c3ccc4c(c3)C(=O)N(C3CCC(=O)NC3=O)C4=O)CC2)CC1` (stereo not drawn) [Compound D57], the DC50 (Table 6B) was below 10 nM.

Regarding `COc1cc(-c2cn(C)c(=O)c3cnc(N4CC(F)C4)cc23)cc(OC)c1CN1CC(CN2CCC3(CC2)CN(c2ccc4c(c2)C(=O)N(C2CCC(=O)NC2=O)C4)C3)C1` (stereo not drawn) [Compound D200], the DC50 (Table 6C) is below 10 nM. As for `[2H]C([2H])([2H])n1cc(-c2cc(OC)c(CN3CC(Oc4ccc5c(c4)C(=O)N(C4CCC(=O)NC4=O)C5)C3)c(OC)c2)c2cc(C3CC3)ncc2c1=O` (stereo not drawn) [Compound D247], under “Table 6C”, the DC50 is below 10 nM. Consider `COc1cc(-c2cn(C)c(=O)c3cnc(N4CCC4)nc23)cc(OC)c1CN1CCC(CN2CCC3(CC2)CC(Oc2ccc4c(c2)CN(C2CCC(=O)NC2=O)C4=O)C3)CC1` (stereo not drawn) [Compound D182], for which, under “Table 6B”, the DC50 was below 10 nM. The same measure, in the same setting: next, `COc1cc(-c2cn(C)c(=O)c3cnc(N(C)C)cc23)cc(OC)c1CN1CC(CC(=O)N2CCC3(CC2)CC(Oc2ccc4c(c2)C(=O)N(C2CCC(=O)NC2=O)C4=O)C3)C1` (stereo not drawn) [Compound D42]: below 10 nM.

With `[2H]C([2H])([2H])n1cc(-c2cc(OC)c(CN3CC(CN4CCC5(CC4)CN(c4ccc6c(c4)C(=O)N(C4CCC(=O)NC4=O)C6=O)C5)C3)c(OC)c2)c2cc(C3CC3)ncc2c1=O` (stereo not drawn) [Compound D306], under “Table 6C”, the DC50 was below 10 nM. With `COc1cc(-c2cn(C)c(=O)c3cnc(N4CCC4)cc23)cc(OC)c1CN1CCC(C(=O)N2CCC3(CC2)CC(Oc2ccc4c(c2)C(=O)N(C2CCC(=O)NC2=O)C4=O)C3)CC1` (stereo not drawn) [Compound D79], under “Table 6B”, the DC50 was below 10 nM. On the same count and under the same terms, next, `COc1cc(-c2cn(C)c(=O)c3cnc(N(C)C)cc23)cc(OC)c1CN1CCN(C2(COc3ccc4c(c3)C(=O)N(C3CCC(=O)NC3=O)C4=O)COC2)CC1` (stereo not drawn) [Compound D95]: below 10 nM; `COc1cc(-c2cn(C)c(=O)c3cnc(N(C)C)cc23)cc(OC)c1CN(C)CC12CC(C(=O)NCCCCCOc3ccc4c(c3)C(=O)N(C3CCC(=O)NC3=O)C4=O)(C1)C2` (stereo not drawn) [Compound D38]: below 10 nM; `COc1cc(-c2cn(C)c(=O)c3cnc(N(C)C)cc23)cc(OC)c1CN1CC2(CCC(N3Cc4cc5c(cc4C3)C(=O)N(C3CCC(=O)NC3=O)C5=O)CC2)C1` (stereo not drawn) [Compound D64]: 100 to 1000 nM. As for `COc1cc(-c2cn(C)c(=O)c3cnc(N(C)C)cc23)cc(OC)c1CN1CC2(CCN(C(C)(C)C#Cc3ccc4c(c3)C(=O)N(C3CCC(=O)NC3=O)C4=O)CC2)C1` (stereo not drawn) [Compound D73], the DC50 (Table 6B) was below 10 nM.

Take `COc1cc(-c2cn(C)c(=O)c3cnc(N(C)C)cc23)cc(OC)c1CN1CCC2(CC1)CC(Oc1ccc3c(c1)C(=O)N(C1CCC(=O)NC1=O)C3=O)C2` (stereo not drawn) [Compound D58]: the DC50 (Table 6B) is below 10 nM. The same measure, in the same setting: in the case of `COc1cc(-c2cn(C)c(=O)c3cnc(N(C)C)cc23)cc(OC)c1CN1CCC2(C1)CN(c1ccc3c(c1)C(=O)N(C1CCC(=O)NC1=O)C3=O)C2` (stereo not drawn) [Compound D91] it was below 10 nM. For the molecule `COc1cc(-c2cn(C)c(=O)c3cnc(N(C)C)cc23)cc(OC)c1CN1CCC(N2CCN(C3CCC(=O)NC3=O)C(=O)C2)CC1` (stereo not drawn) [Compound D253], the DC50 (Table 6C) was at least 1000 nM. Take `COc1cc(-c2cn(C)c(=O)c3cnc(N(C)C)cc23)cc(OC)c1CN1CCN(C(C)COc2cccc3c2C(=O)N(C2CCC(=O)NC2=O)C3=O)CC1` (stereo not drawn) [Compound D71]: the DC50 (Table 6B) was below 10 nM. Consider `COc1cc(-c2cn(C)c(=O)c3cnc(N(C)C)cc23)cc(OC)c1CN(C)C12CC(C(=O)NCCCCCOc3cccc4c3C(=O)N(C3CCC(=O)NC3=O)C4=O)(C1)C2` (stereo not drawn) [Compound D34], for which the DC50 (Table 6B) was below 10 nM.

For `[2H]C([2H])([2H])n1cc(-c2cc(OC)c(CN3CCN(CCC4CCN(c5ccc6c(c5)C(=O)N(C5CCC(=O)NC5=O)C6)CC4)CC3)c(OC)c2)c2cc(N(C)C)ncc2c1=O` (stereo not drawn) [Compound D240], the DC50 (Table 6C) was below 10 nM. Take `COc1cc(-c2cn(C)c(=O)c3cnc(N(C)C)cc23)cc(OC)c1CN1CCC2(CC1)CN(c1ccc3c(c1)C(=O)N(C1CCC(=O)NC1=O)C3=O)C2` (stereo not drawn) [Compound D68]: the DC50 (Table 6B) is below 10 nM.

On to `COc1cc(-c2cn(C)c(=O)c3cnc(C(C)(C)O)cc23)cc(OC)c1CN1CCC(CN2CCC3(CC2)CC(Oc2ccc4c(c2)C(=O)N(C2CCC(=O)NC2=O)C4)C3)CC1` (stereo not drawn) [Compound D228], for which the DC50 (Table 6C) was below 10 nM.

Regarding `COc1cc(-c2cn(C)c(=O)c3cnc(C4CC4)cc23)cc(OC)c1CN1CC(CN2CCC3(CC2)CN(c2ccc4c(c2)C(=O)N(C2CCC(=O)NC2=O)C4=O)C3)C1` (stereo not drawn) [Compound D303], the DC50 (Table 6C) was below 10 nM. On the same count and under the same terms, in the case of `COc1cc(-c2cn(C)c(=O)c3cnc(N4CCC4)cc23)cc(OC)c1CN1CCN(c2ccc3c(c2)C(=O)N(C2CCC(=O)NC2=O)C3)CC1(C)C` (stereo not drawn) [Compound D290] it was below 10 nM. Consider `COc1cc(-c2cn(C)c(=O)c3cnc(N(C)C)cc23)cc(OC)c1CN1CC(CN2CCC3(C2)CN(c2ccc4c(c2)C(=O)N(C2CCC(=O)NC2=O)C4=O)C3)C1` (stereo not drawn) [Compound D51], for which, for the setting “Table 6B”, the DC50 was below 10 nM. With `COc1cc(-c2cn(C)c(=O)c3cnc(C4CC4)cc23)cc(OC)c1CN1CCC2(CC1)CN(c1ccc3c(c1)CN(C1CCC(=O)NC1=O)C3=O)C2` (stereo not drawn) [Compound D220], the DC50 (Table 6C) was below 10 nM.

As for `COc1cc(-c2cn(C)c(=O)c3cnc(N(C)C)cc23)cc(OC)c1CN1CCC(CN2CCC3(CC2)CN(c2ccc4c(c2)C(=O)N(C2CCC(=O)NC2=O)C4)C3)C(F)(F)C1` (stereo not drawn) [Compound D236], the DC50 (Table 6C) is below 10 nM.

Regarding `COc1cc(-c2cn(C)c(=O)c3cnc(N(C)C)cc23)cc(OC)c1CN1CC(C#Cc2ccc3c(c2)C(=O)N(C2CCC(=O)NC2=O)C3)C1` (stereo not drawn) [Compound D267], under “Table 6C”, the DC50 was below 10 nM. For `COc1cc(-c2cn(C)c(=O)c3cnc(N(C)C)cc23)cc(OC)c1CN1CC(C(C)N2CCC3(CC2)CN(c2ccc4c(c2)C(=O)N(C2CCC(=O)NC2=O)C4=O)C3)C1` (stereo not drawn) [Compound D110], under “Table 6B”, the DC50 is below 10 nM.
